According to US20190119284A1, “ErbB Inhibitors and Uses Thereof” (The Regents of the University of California, priority 2016, published 2019):
Values joined by “and” are separate entries in the source; they are usually repeats but may differ in a detail not shown here. Equal values may be shown once. Read-outs that look alike come from different tables or passages of the source.

How the values were obtained:
[1] = Pharmacokinetic study, IP administration in male CD-1 mice; assay type: in vivo
[2] = Mouse Liver Microsome stability assay; assay type: in vitro ADME; settings: mouse liver microsomes
[3] = Pharmacokinetic study, IV administration in male CD-1 mice; assay type: in vivo
[4] = IP 2.0 mg/kg, individual mice M1-M3
[5] = IP 2.0 mg/kg, individual mice M1-M3, 2 mg/kg
[6] = IP 2.0 mg/kg, plasma, individual mice M1-M3, 2 mg/kg
[7] = male, CD-1, mouse, plasma, ip, 2 mg/kg, Mean
[8] = male, CD-1, mouse, plasma, ip, 2 mg/kg, individual mice M1-M3
[9] = IV 2.0 mg/kg, individual mice M1-M3, 2 mg/kg
[10] = IV 2.0 mg/kg, plasma, individual mice M1-M3, 2 mg/kg
[11] = male, CD-1, mouse, plasma, iv, 2 mg/kg, Mean
[12] = male, CD-1, mouse, plasma, iv, 2 mg/kg, individual mice M1-M3

COc1ccc(-c2cccc(F)c2)cc1Nc1ncnc2[nH]nc(-c3cc[nH]n3)c12 [8168B]
Plasma Concentration at 5.00 h ([1]; IP 2.0 mg/kg, Mean): BLQ
Plasma Concentration at 8.00 h ([1]; IP 2.0 mg/kg, Mean): BLQ
Plasma Concentration at 24.00 h ([1]; IP 2.0 mg/kg, Mean): BLQ
Plasma Concentration at 5.00 h [1, 4]: BLQ
Plasma Concentration at 8.00 h [1, 4]: BLQ
Plasma Concentration at 24.00 h [1, 4]: BLQ
Plasma Concentration at 0.25 h [1, 5]: 189.54 ng/mL and 198.56 ng/mL
Plasma Concentration at 1.00 h [1, 5]: 69.73 ng/mL and 76.68 ng/mL
Plasma Concentration at 3.00 h [1, 5]: 4.17 ng/mL and 2.33 ng/mL
AUCExtra ([1]; IP 2.0 mg/kg, plasma, Mean): 1.11%
AUC0-inf [1, 6]: 163.10 ng·h/mL and 164.87 ng·h/mL
AUC0-last [1, 6]: 160.10 ng·h/mL and 163.46 ng·h/mL
AUCExtra [1, 6]: 0.63% and 1.84% and 0.86%
AUCall [1, 6]: 160.10 ng·h/mL and 163.46 ng·h/mL
Cmax [1, 6]: 189.54 ng/mL and 198.56 ng/mL
Half-life (T½) [1, 6]: 30 min and 25.2 min
MRT0-last [1, 6]: 48.6 min
AUC [1, 7]: 175 ng·h/mL
AUC(0-t) [1, 7]: 175 ng·h/mL
concentration at 0.25 h [1, 7]: 210 ng/mL
concentration at 1 h [1, 7]: 82.3 ng/mL
concentration at 3 h [1, 7]: 2.92 ng/mL
AUC0-inf ([1]; male, CD-1, mouse, plasma, ip, 2 mg/kg, Mean, read-out: AUC0-inf): 177 ng·h/mL
Cmax ([1]; male, CD-1, mouse, plasma, ip, 2 mg/kg, Mean, read-out: Cmax): 210 ng/mL
MRT last ([1]; male, CD-1, mouse, plasma, ip, 2 mg/kg, Mean, read-out: MRT0-last): 46.8 min
Half-life (T½) ([1]; male, CD-1, mouse, plasma, ip, 2 mg/kg, Mean, read-out: Oral T½ (converted)): 26.4 min
AUC [1, 8]: 203 ng·h/mL
AUC(0-t) [1, 8]: 203 ng·h/mL
concentration at 0.25 h [1, 8]: 242 ng/mL
concentration at 1 h [1, 8]: 101 ng/mL
concentration at 3 h [1, 8]: 2.25 ng/mL
AUC0-inf ([1]; male, CD-1, mouse, plasma, ip, 2 mg/kg, individual mice M1-M3, read-out: AUC0-inf): 204 ng·h/mL
Cmax ([1]; male, CD-1, mouse, plasma, ip, 2 mg/kg, individual mice M1-M3, read-out: Cmax): 242 ng/mL
MRT last ([1]; male, CD-1, mouse, plasma, ip, 2 mg/kg, individual mice M1-M3, read-out: MRT0-last): 45.6 min
Half-life (T½) ([1]; male, CD-1, mouse, plasma, ip, 2 mg/kg, individual mice M1-M3, read-out: Oral T½ (converted)): 24 min
Tmax ([1]; male, CD-1, mouse, IP 2.0 mg/kg, plasma, individual mice M1-M3): 15 min
WuXi Microsomal stability (Mouse Extraction Ratio) [2]: <0.3
Plasma Concentration at 0.08 h [3, 9]: 53.28 ng/mL and 64.54 ng/mL
Plasma Concentration at 0.25 h [3, 9]: 29.14 ng/mL and 34.06 ng/mL
Plasma Concentration at 1.00 h [3, 9]: 22.71 ng/mL and 12.93 ng/mL
Plasma Concentration at 3.00 h [3, 9]: 11.36 ng/mL and 8.08 ng/mL
Plasma Concentration at 5.00 h [3, 9]: 7.57 ng/mL and 6.55 ng/mL
Plasma Concentration at 8.00 h [3, 9]: 7.32 ng/mL and 9.38 ng/mL
Plasma Concentration at 24.00 h [3, 9]: 5.33 ng/mL and 3.54 ng/mL
AUCExtra ([3]; IV 2.0 mg/kg, plasma, Mean): 46.09%
AUC0-inf [3, 10]: 3147.06 ng·h/mL and 487.06 ng·h/mL and 282.28 ng·h/mL
AUC0-last [3, 10]: 205.32 ng·h/mL and 185.37 ng·h/mL
AUCExtra [3, 10]: 94.18% and 57.85% and 34.33%
AUCall [3, 10]: 205.32 ng·h/mL and 185.37 ng·h/mL
C0 [3, 10]: 71.91 ng/mL and 88.67 ng/mL
Cl [3, 10]: 10.59 mL/min/kg and 68.44 mL/min/kg and 118.09 mL/min/kg
MRT0-last [3, 10]: 542 min
T½ [3, 10]: 302.57 h and 36.64 h and 18.98 h
Vd [3, 10]: 217.05 L/kg and 193.96 L/kg
AUC [3, 11]: 191 ng·h/mL
AUC(0-t) [3, 11]: 191 ng·h/mL
clearance [3, 11]: 93.3 mL/min/kg
concentration at 0.08 h [3, 11]: 58.9 ng/mL
concentration at 0.25 h [3, 11]: 31.6 ng/mL
concentration at 1 h [3, 11]: 17.8 ng/mL
concentration at 3 h [3, 11]: 9.72 ng/mL
concentration at 5 h [3, 11]: 7.06 ng/mL
concentration at 8 h [3, 11]: 8.35 ng/mL
concentration at 24 h [3, 11]: 4.44 ng/mL
AUC0-inf ([3]; male, CD-1, mouse, plasma, iv, 2 mg/kg, Mean, read-out: AUC0-inf): 385 ng·h/mL
C0 ([3]; male, CD-1, mouse, plasma, iv, 2 mg/kg, Mean, read-out: C0): 77.7 ng/mL
MRT last ([3]; male, CD-1, mouse, plasma, iv, 2 mg/kg, Mean, read-out: MRT0-last): 568 min
half-life ([3]; male, CD-1, mouse, plasma, iv, 2 mg/kg, Mean, read-out: T½ (converted)): 1670 min
Vd ([3]; male, CD-1, mouse, plasma, iv, 2 mg/kg, Mean, read-out: Vd): 206 L/kg
AUC [3, 12]: 183 ng·h/mL
AUC(0-t) [3, 12]: 183 ng·h/mL
concentration at 0.08 h [3, 12]: 55.1 ng/mL
concentration at 0.25 h [3, 12]: 31.9 ng/mL
concentration at 1 h [3, 12]: 12.3 ng/mL
concentration at 3 h [3, 12]: 6.96 ng/mL
concentration at 5 h [3, 12]: 7.32 ng/mL
concentration at 8 h [3, 12]: 6.02 ng/mL
concentration at 24 h [3, 12]: 6.79 ng/mL
C0 ([3]; male, CD-1, mouse, plasma, iv, 2 mg/kg, individual mice M1-M3, read-out: C0): 72.4 ng/mL
MRT last ([3]; male, CD-1, mouse, plasma, iv, 2 mg/kg, individual mice M1-M3, read-out: MRT0-last): 618 min
Vd ([3]; male, CD-1, mouse, plasma, iv, 2 mg/kg, individual mice M1-M3, read-out: Vd): 277 L/kg

CN(C)c1ccc(-c2ccccc2)cc1Nc1ncnc2[nH]nc(-c3cc[nH]n3)c12 [compound 8164]
WuXi Microsomal stability (Mouse Extraction Ratio) [2]: 0.9

COc1ccc(-c2ccccc2)cc1Nc1ncnc2[nH]nc(-c3n[nH]cc3C)c12 [compound 8186]
WuXi Microsomal stability (Mouse Extraction Ratio) [2]: 0.7
